Tested on: FXa
Conditions: in vivo
Experimental: New Zealand white rabbits of both sexes, weighing 2.5-3.5 kg were used in all experiments. […] The rabbits were anaesthetized with Mebumal, 20 mg/kg. The anaesthesia was subsequently maintained as required. The animals were shaved and a medial laparotomy performed. The test compounds were then injected directly into the duodenum, after which the peritoneal cavity was closed. Rectal administration was performed by means of a syringe coupled to a plastic tube designed for use in the rectum of rabbits. The dosage was checked by weighing of the syringe and connecting tubings before and after administering the test compounds.
Blood samples (1 ml) were collected at 0.25, 0.5, 0.75, 1, 1.5, 2, 2.5, 3, 4, 5, 6, 7, 8, 9, and 10 hours with the aid of catheter inserted in the ear artery and mixed with sodium […] to a final concentration of 0.04M. The tubes were kept on ice until centrifuged at 800 g for 10 minutes. The anti-FXa activity in plasma was determined with an initial rate assay using bovine FXa (Kabi Pharmacia) and the chromogenic substrate S-2222.

heparin was tested, and the “degree of absorption compared with Fragmin” value was “significantly lower than that of Fragmin®”, the “rectal absorption when admixed with the lipid system” value was “significantly increased” and the “anti-FXa activity detected in plasma” value (2 mg/kg) was “detectable levels of anti-FXa activity”. The average absorption (rabbit, 2 mg/kg) was 15.7%±8.

Source: patent publication US5626869A, “Pharmaceutical composition containing a defined lipid system” (Pharmacia & Upjohn AB, priority 1992, dated 1997)
